Several values for one entry are separate records, joined by “and”; a condition that tells them apart may be missing. Identical values can stand only once. ± gives the expanded uncertainty stated by the source.
settings: 313.15 K; Liquid; Ebulliometric method (Recirculating still)

vapor or sublimation pressure	SMILES
31.63 ± 0.17 kPa and 31.64 ± 0.17 kPa	CCOC(C)(C)C [2-ethoxy-2-methylpropane]
44.96 ± 0.28 kPa and 44.94 ± 0.28 kPa	C=CCCCC [hex-1-ene]

SMILES	vapor or sublimation pressure
Cc1ccccc1 [toluene]	7.869 ± 0.07 kPa and 7.872 ± 0.07 kPa
